Publication PMC9649612, “Molecular docking and biochemical validation of (-)-syringaresinol-4-O-β-D-apiofuranosyl-(1→2)-β-D-glucopyranoside binding to an allosteric site in monoamine transporters” (Frontiers in Pharmacology, 2022)

Experiments:
[1] = target: T1, hSERT P560G (S2 site mutant) (Homo sapiens, UniProt P31645, P560G); assay: ASP+ binding in digitonin-permeabilized HeLa cells expressing hSERT P560G; conditions: 10 μM ASP+, read-out: SAG IC50 for binding
T1 construct: expressed in transfected cells; host or cells: HeLa (ATCC CCL-2), transient, pcDNA3.1
Experimental: (§1) The mutants used for this study were constructed in the WT background carried by the expression plasmids for hSERT, hDAT, or hNET under the control of CMV promotor in pcDNA3.1 vector, respectively. All mutants were generated using the Mut Express II Fast Mutagenesis Kit (Vazyme) and confirmed by full-length DNA sequencing.
(§2) HeLa cells were cultured in Dulbecco’s Modified Eagle’s Medium supplemented with 10% fetal bovine serum, 100 units/ml penicillin, and 100 μg/ml streptomycin at 37°C in a humidified 5% CO2 incubator. Cells were plated in a 6-well culture plate and grown overnight. Cells at ∼70% confluence were transfected with hSERT, hDAT, or hNET cDNA in pcDNA3.1 by lipofectamine 2000. […] After grown for additional 12–16 h, the cells were assayed for APP^+ or ASP^+ fluorescence image acquisition.
(§3) The cells expressing WT or mutants of hSERT, hDAT, or hNET were wet mounted on polylysine coated glass slides in 12-well plates and applied for the indicated treatments. […] The extent of APP^+ accumulated in the cells was determined by confocal imaging analysis. ASP^+ binding to SERT in the cell membrane was measured with digitonin-permeabilized cells ([Li M. et al., 2022a]). […] After removing excess ASP^+ by rapid washing three times, ASP^+ binding was determined by confocal imaging analysis.
(§4) Images were analyzed using Zen Blue software. […]

[2] = target: T2, hNET D473N (S2 site mutant) (Homo sapiens, UniProt P23975, D473N); assay: APP+ transport in HeLa cells expressing hNET mutant D473N; format: cell-based
T2 construct: expressed in transfected cells; host or cells: HeLa
T2 sequence (P23975 whole entry D473N): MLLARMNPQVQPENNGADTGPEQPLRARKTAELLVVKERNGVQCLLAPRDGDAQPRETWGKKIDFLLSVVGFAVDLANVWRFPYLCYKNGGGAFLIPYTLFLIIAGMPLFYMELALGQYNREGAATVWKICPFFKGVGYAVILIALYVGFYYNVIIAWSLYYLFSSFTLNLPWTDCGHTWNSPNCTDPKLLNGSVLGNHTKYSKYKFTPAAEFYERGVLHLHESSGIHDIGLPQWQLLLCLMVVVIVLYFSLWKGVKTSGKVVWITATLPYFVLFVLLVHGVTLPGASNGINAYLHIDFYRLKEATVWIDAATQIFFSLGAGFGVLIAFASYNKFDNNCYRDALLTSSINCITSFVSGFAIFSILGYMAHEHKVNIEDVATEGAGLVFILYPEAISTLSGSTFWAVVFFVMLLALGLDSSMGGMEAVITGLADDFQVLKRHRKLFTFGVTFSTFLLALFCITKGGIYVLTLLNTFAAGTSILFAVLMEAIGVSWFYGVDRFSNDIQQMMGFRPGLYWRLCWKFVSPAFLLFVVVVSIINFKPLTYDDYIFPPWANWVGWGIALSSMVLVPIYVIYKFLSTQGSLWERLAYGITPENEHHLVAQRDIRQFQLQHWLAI
Experimental: as §1
HeLa cells were cultured in Dulbecco’s Modified Eagle’s Medium supplemented with 10% fetal bovine serum, 100 units/ml penicillin, and 100 μg/ml streptomycin at 37°C in a humidified 5% CO2 incubator. Cells were plated in a 6-well culture plate and grown overnight. Cells at ∼70% confluence were transfected with hSERT, hDAT, or hNET cDNA in pcDNA3.1 by lipofectamine 2000. Transfected cells were incubated for 24 h at 37°C with 5% CO2 and then transferred into a 12-well plate placed with polylysine coated slides. After grown for additional 12–16 h, the cells were assayed for APP^+ or ASP^+ fluorescence image acquisition.
The cells expressing WT or mutants of hSERT, hDAT, or hNET were wet mounted on polylysine coated glass slides in 12-well plates and applied for the indicated treatments. In brief, the cells were washed twice with 500 μl KRH buffer containing 20 mM HEPES, pH 7.4, 120 mM NaCl, 1.3 mM KCl, 2.2 mM CaCl2, 1.2 mM MgSO4, and 0.1% (w/v) glucose. […] Excess APP^+ was then removed by rapid washing three times with 500 μl KRH buffer. The extent of APP^+ accumulated in the cells was determined by confocal imaging analysis. ASP^+ binding to SERT in the cell membrane was measured with digitonin-permeabilized cells ([Li M. et al., 2022a]). […] After removing excess ASP^+ by rapid washing three times, ASP^+ binding was determined by confocal imaging analysis.
Images were analyzed using Zen Blue software.
Nonlinear regression fits of experimental and calculated data were performed with Origin (Origin Lab). The statistical analysis given was from multiple experiments. Data with error bars in the figures represent the mean ± SD for at least 10 measurements per condition in one experiment or the mean ± SEM from at least three experiments as indicated, respectively. […]

[3] = target: T3, hDAT V152F (S1 site mutant) (Homo sapiens, UniProt Q01959, V152F); assay: APP+ transport in HeLa cells expressing hDAT mutant V152F; format: cell-based
T3 construct: expressed in transfected cells; host or cells: HeLa
T3 sequence (Q01959 whole entry V152F): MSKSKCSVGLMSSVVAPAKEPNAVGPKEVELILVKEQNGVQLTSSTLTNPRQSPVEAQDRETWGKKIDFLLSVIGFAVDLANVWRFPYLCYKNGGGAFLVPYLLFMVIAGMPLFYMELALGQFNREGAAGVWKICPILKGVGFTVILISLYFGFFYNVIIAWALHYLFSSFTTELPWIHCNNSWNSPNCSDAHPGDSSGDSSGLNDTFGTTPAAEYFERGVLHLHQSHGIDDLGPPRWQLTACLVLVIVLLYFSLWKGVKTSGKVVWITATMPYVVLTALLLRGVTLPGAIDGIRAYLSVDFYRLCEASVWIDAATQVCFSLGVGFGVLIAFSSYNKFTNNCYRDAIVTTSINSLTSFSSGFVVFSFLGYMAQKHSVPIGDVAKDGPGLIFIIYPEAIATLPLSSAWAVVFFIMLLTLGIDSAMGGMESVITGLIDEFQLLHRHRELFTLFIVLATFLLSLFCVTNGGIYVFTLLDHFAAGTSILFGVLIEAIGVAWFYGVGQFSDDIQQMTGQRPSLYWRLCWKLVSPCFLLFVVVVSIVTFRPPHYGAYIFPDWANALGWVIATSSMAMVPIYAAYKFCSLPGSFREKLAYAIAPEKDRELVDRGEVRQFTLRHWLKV
Experimental: as §1, §2, §3, §4

[4] = target: T4, hSERT P561G (S2 site mutant) (Homo sapiens, UniProt P31645, P561G); assay: APP+ transport in HeLa cells expressing hSERT mutant P561G; format: cell-based; conditions: 2 μM APP+ 5 min, intact HeLa cells, read-out: SAG IC50 for transport
T4 construct: expressed in transfected cells; host or cells: HeLa (ATCC CCL-2), transient, pcDNA3.1
Experimental: as §1, §2, §3, §4

[5] = target: T5, hSERT Y579A (S2 site mutant) (Homo sapiens, UniProt P31645, Y579A); assay: APP+ transport in HeLa cells expressing hSERT mutant Y579A; format: cell-based; conditions: 2 μM APP+ 5 min, intact HeLa cells, read-out: SAG IC50 for transport
T5 construct: expressed in transfected cells; host or cells: HeLa (ATCC CCL-2), transient, pcDNA3.1
Experimental: as §1, §2, §3, §4

[6] = target: T6, hSERT I327A (S2 site mutant) (Homo sapiens, UniProt P31645, I327A); assay: APP+ transport in HeLa cells expressing hSERT mutant I327A; format: cell-based; conditions: 2 μM APP+ 5 min, intact HeLa cells, read-out: SAG IC50 for transport
T6 construct: expressed in transfected cells; host or cells: HeLa (ATCC CCL-2), transient, pcDNA3.1
Experimental: as §1, §2, §3, §4

[7] = target: T7, hNET W559A (S2 site mutant) (Homo sapiens, UniProt P23975, W559A); assay: APP+ transport in HeLa cells expressing hNET mutant W559A; format: cell-based; conditions: intact HeLa cells, read-out: SAG IC50
T7 construct: expressed in transfected cells; host or cells: HeLa
T7 sequence (P23975 whole entry W559A): as the sequence (P23975 whole entry D473N) above, with N473D, W559A counted along it
Experimental: as §1, §2, §3, §4

[8] = target: T8, hSERT T583A (S2 site mutant) (Homo sapiens, UniProt P31645, T583A); assay: APP+ transport in HeLa cells expressing hSERT mutant T583A; format: cell-based; conditions: 2 μM APP+ 5 min, intact HeLa cells, read-out: SAG IC50 for transport
T8 construct: expressed in transfected cells; host or cells: HeLa (ATCC CCL-2), transient, pcDNA3.1
Experimental: as §1, §2, §3, §4

[9] = target: T9, hDAT R544G (S2 site mutant) (Homo sapiens, UniProt Q01959, R544G); assay: APP+ transport in HeLa cells expressing hDAT mutant R544G; format: cell-based
T9 construct: expressed in transfected cells; host or cells: HeLa
T9 sequence (Q01959 whole entry R544G): as the sequence (Q01959 whole entry V152F) above, with F152V, R544G counted along it
Experimental: as §1, §2, §3, §4

[10] = target: T1, hSERT P560G (S2 site mutant); assay: APP+ transport in HeLa cells expressing hSERT mutant P560G; format: cell-based; conditions: 2 μM APP+ 5 min, intact HeLa cells, read-out: SAG IC50 for transport
Experimental: as §1, §2, §3, §4

[11] = target: T10, hNET Q314A (S2 site mutant) (Homo sapiens, UniProt P23975, Q314A); assay: APP+ transport in HeLa cells expressing hNET mutant Q314A; format: cell-based; conditions: intact HeLa cells, read-out: SAG IC50
T10 construct: expressed in transfected cells; host or cells: HeLa
T10 sequence (P23975 whole entry Q314A): as the sequence (P23975 whole entry D473N) above, with Q314A, N473D counted along it
Experimental: as §1, §2, §3, §4

[12] = target: T11, hSERT Q562N (S2 site mutant) (Homo sapiens, UniProt P31645, Q562N); assay: APP+ transport in HeLa cells expressing hSERT mutant Q562N; format: cell-based; conditions: 2 μM APP+ 5 min, intact HeLa cells, read-out: SAG IC50 for transport
T11 construct: expressed in transfected cells; host or cells: HeLa (ATCC CCL-2), transient, pcDNA3.1
Experimental: as §1, §2, §3, §4

[13] = target: T11, hSERT Q562N (S2 site mutant); assay: ASP+ binding in digitonin-permeabilized HeLa cells expressing hSERT Q562N; conditions: 10 μM ASP+, read-out: SAG IC50 for binding
Experimental: as §1, §2, §3, §4

[14] = target: T12, hNET K541G (S2 site mutant) (Homo sapiens, UniProt P23975, K541G); assay: APP+ transport in HeLa cells expressing hNET mutant K541G; format: cell-based; conditions: intact HeLa cells, read-out: SAG IC50
T12 construct: expressed in transfected cells; host or cells: HeLa
T12 sequence (P23975 whole entry K541G): as the sequence (P23975 whole entry D473N) above, with N473D, K541G counted along it
Experimental: as §1, §2, §3, §4

[15] = target: T13, hDAT F320A (S2 site mutant) (Homo sapiens, UniProt Q01959, F320A); assay: APP+ transport in HeLa cells expressing hDAT mutant F320A; format: cell-based
T13 construct: expressed in transfected cells; host or cells: HeLa
T13 sequence (Q01959 whole entry F320A): as the sequence (Q01959 whole entry V152F) above, with F152V, F320A counted along it
Experimental: as §1, §2, §3, §4

[16] = target: T14, hSERT D328A (S2 site mutant) (Homo sapiens, UniProt P31645, D328A); assay: APP+ transport in HeLa cells expressing hSERT mutant D328A; format: cell-based; conditions: 2 μM APP+ 5 min, intact HeLa cells, read-out: SAG IC50 for transport
T14 construct: expressed in transfected cells; host or cells: HeLa (ATCC CCL-2), transient, pcDNA3.1
Experimental: as §1, §2, §3, §4

[17] = target: T15, hSERT E494Q (S2 site mutant) (Homo sapiens, UniProt P31645, E494Q); assay: APP+ transport in HeLa cells expressing hSERT mutant E494Q; format: cell-based; conditions: 2 μM APP+ 5 min, intact HeLa cells, read-out: SAG IC50 for transport
T15 construct: expressed in transfected cells; host or cells: HeLa (ATCC CCL-2), transient, pcDNA3.1
Experimental: as §1, §2, §3, §4

[18] = target: T16, hSERT S559A (S2 site mutant) (Homo sapiens, UniProt P31645, S559A); assay: APP+ transport in HeLa cells expressing hSERT mutant S559A; format: cell-based; conditions: 2 μM APP+ 5 min, intact HeLa cells, read-out: SAG IC50 for transport
T16 construct: expressed in transfected cells; host or cells: HeLa (ATCC CCL-2), transient, pcDNA3.1
Experimental: as §1, §2, §3, §4

[19] = target: T17, hSERT G498T (S2 site mutant) (Homo sapiens, UniProt P31645, G498T); assay: APP+ transport in HeLa cells expressing hSERT mutant G498T; format: cell-based; conditions: 2 μM APP+ 5 min, intact HeLa cells, read-out: SAG IC50 for transport
T17 construct: expressed in transfected cells; host or cells: HeLa (ATCC CCL-2), transient, pcDNA3.1
Experimental: as §1, §2, §3, §4

[20] = target: T18, hSERT Q111N (S2 site mutant) (Homo sapiens, UniProt P31645, Q111N); assay: APP+ transport in HeLa cells expressing hSERT mutant Q111N; format: cell-based; conditions: 2 μM APP+ 5 min, intact HeLa cells, read-out: SAG IC50 for transport
T18 construct: expressed in transfected cells; host or cells: HeLa (ATCC CCL-2), transient, pcDNA3.1
Experimental: as §1, §2, §3, §4

[21] = target: T19, hDAT W562A (S2 site mutant) (Homo sapiens, UniProt Q01959, W562A); assay: APP+ transport in HeLa cells expressing hDAT mutant W562A; format: cell-based
T19 construct: expressed in transfected cells; host or cells: HeLa
T19 sequence (Q01959 whole entry W562A): as the sequence (Q01959 whole entry V152F) above, with F152V, W562A counted along it
Experimental: as §1, §2, §3, §4

“(-)-Syringaresinol-4-O-β-D-apiofuranosyl-(1→2)-β-D-glucopyranoside [SAG]” was tested, and the IC50 [1] was 324 ± 28 µM, the “Change in SAG inhibition potency compared to WT” value ([2]; hNET D473N vs WT-hNET) was “little change” and the “Decrease in SAG inhibition potency compared with WT” value ([2]; hNET D473N vs WT-hNET) was “less than 3 folds”. The IC50 ([2]; hNET D473N, intact HeLa cells, read-out: SAG IC50) was 42.7 ± 4.7 µM, the “Effect of mutation on SAG inhibition potency” value ([3]; hDAT S1 residue Val152 replaced) was “little effect” and the IC50 ([3]; hDAT V152F (S1), intact HeLa cells, read-out: SAG IC50) was 26.6 ± 2.8 µM. The IC50 [4] was > 1000 µM, the IC50 [5] was 127 ± 3 µM and the IC50 [6] was 25.5 ± 1.2 µM. For the same substance, the IC50 [7] was > 1000 µM, the IC50 [8] was > 1000 µM and the “Increase in SAG IC50 compared with WT” value ([9]; hDAT R544G vs WT-hDAT) was “less than 10 fold”. It also gave an IC50 ([9]; hDAT R544G, intact HeLa cells, read-out: SAG IC50) of 150 ± 4 µM, an IC50 [10] of 243 ± 10 µM and an IC50 [11] of 4.37 ± 1.06 µM. The IC50 [12] was 289 ± 11 µM, the IC50 [13] was 450 ± 23 µM and the IC50 [14] was 79.8 ± 3.3 µM. For the same substance, the “Decrease in SAG IC50 compared with WT” value ([15]; hDAT F320A vs WT-hDAT) was ~50%, the IC50 ([15]; hDAT F320A, intact HeLa cells, read-out: SAG IC50) was 16.8 ± 0.7 µM and the IC50 [16] was 113 ± 5 µM. It also gave an IC50 [17] of 153 ± 2 µM, an IC50 [18] of 20.2 ± 1.9 µM and an IC50 [19] of 69.2 ± 3.3 µM. The IC50 [20] was 19.1 ± 2.2 µM, the “Increase in SAG IC50 compared with WT” value ([21]; hDAT W562A vs WT-hDAT) was “more than 30 fold” and the IC50 ([21]; hDAT W562A, intact HeLa cells, read-out: SAG IC50) was > 1000 µM.
